Laboratory results as given in ChEMBL document CHEMBL5233269, “Anticancer potential of spirocompounds in medicinal chemistry: A pentennial expedition” (Eur J Med Chem, 2021).
pIC50: −log10 of the molar value.

Experiments:
MDA-MB-435 = experiment: Growth inhibition of human MDA-MB-435 cells by SRB assay; assay type: functional
MCF7 [1] = experiment: Growth inhibition of human MCF7 cells by SRB assay; assay type: functional
A549 [2] = experiment: Cytotoxicity against human A549 cells; assay type: functional, cell-based
SW-620 = experiment: Cytotoxicity against human SW620 cells; assay type: functional, cell-based
HCT-116 [3] = experiment: Cytotoxicity against human HCT-116 cells; assay type: functional, cell-based
PC-3 [4] = experiment: Cytotoxicity against human PC-3 cells; assay type: functional, cell-based
MCF7 [5] = experiment: Cytotoxicity against human MCF7 cells incubated for 48 hrs by SRB assay relative to control; assay type: functional; parameters: concentration or dose not given beside the values
HepG2 [6] = experiment: Cytotoxicity against human HepG2 cells incubated for 48 hrs by SRB assay relative to control; assay type: functional; parameters: concentration or dose not given beside the values
[7] = Cytotoxicity against human HBF4 cells incubated for 48 hrs by SRB assay relative to control; assay type: toxicity, cell-based; parameters: concentration or dose not given beside the values; conditions: hbf4, 48 h
K562 = experiment: Anticancer activity against human K562 cells; assay type: functional, cell-based
MCF7 [8] = experiment: Anticancer activity against human MCF7 cells assessed as inhibition of cell viability; assay type: functional, cell-based
HepG2 [9] = experiment: Anticancer activity against human HepG2 cells; assay type: functional, cell-based
[10] = molecular target: T1, Amine oxidase [flavin-containing] A (Rattus norvegicus, UniProt P21396); experiment: Inhibition of rat brain MAO-A relative to control; assay type: tissue-based
T1 sequence (P21396 whole entry): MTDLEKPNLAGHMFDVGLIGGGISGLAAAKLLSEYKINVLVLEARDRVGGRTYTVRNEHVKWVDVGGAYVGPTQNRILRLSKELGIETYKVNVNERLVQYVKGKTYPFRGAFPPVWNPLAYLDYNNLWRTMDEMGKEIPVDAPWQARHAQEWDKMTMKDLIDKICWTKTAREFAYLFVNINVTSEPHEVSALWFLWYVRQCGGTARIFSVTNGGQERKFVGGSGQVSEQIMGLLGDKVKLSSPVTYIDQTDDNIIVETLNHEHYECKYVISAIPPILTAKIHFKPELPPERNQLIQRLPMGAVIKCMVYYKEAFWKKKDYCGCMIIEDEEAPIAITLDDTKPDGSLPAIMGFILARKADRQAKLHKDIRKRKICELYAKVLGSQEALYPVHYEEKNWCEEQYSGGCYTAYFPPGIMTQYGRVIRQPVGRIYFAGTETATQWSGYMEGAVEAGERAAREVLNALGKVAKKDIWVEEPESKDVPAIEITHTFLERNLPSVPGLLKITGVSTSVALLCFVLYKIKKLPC

MCF7 [11] = experiment: Anticancer activity against human MCF7 cells assessed as reduction in cell viability incubated for 48 hrs by MTT assay; assay type: functional, cell-based; conditions: MCF7, 48 h
B16-F10 = experiment: Anticancer activity against mouse B16-F10 cells incubated for 48 hrs by MTT assay; assay type: functional, cell-based; conditions: B16-F10, 48 h
A549 [12] = experiment: Anticancer activity against human A549 cells assessed as reduction in cell viability incubated for 48 hrs by MTT assay; assay type: functional, cell-based; conditions: A549, 48 h
L02 = experiment: Antiproliferative activity against human L02 cells by MTT assay; assay type: functional, cell-based
HepG2 [13] = experiment: Anticancer activity against human HepG2 cells assessed as inhibition of cell viability; assay type: functional, cell-based
PC-3 [14] = experiment: Anticancer activity against human PC-3 cells assessed as inhibition of cell growth; assay type: functional, cell-based
HCT-116 [15] = experiment: Anticancer activity against human HCT-116 cells assessed as inhibition of cell growth; assay type: functional, cell-based
HeLa = experiment: Anticancer activity against human HeLa cells; assay type: functional, cell-based
A549 [16] = experiment: Anticancer activity against human A549 cells assessed as inhibition of cell proliferation; assay type: functional, cell-based
DU-145 = experiment: Anticancer activity against human DU-145 cells; assay type: functional, cell-based
MCF7 [17] = experiment: Anticancer activity against human MCF7 cells; assay type: functional, cell-based

`N#CC1=C(N)OC2=C(C(=O)C=C2)C12C(=O)Nc1ccc(Cl)cc12` (stereo unspecified) showed a GI50 (MDA-MB-435) of 29.9 µM and a GI50 (MCF7 [1]) of 53 µM.

With `CN1CCN(C(=O)C2CN(C(=O)N3CCCCC3)C3(C(=O)Nc4cc(Cl)ccc43)C2c2ccccc2O)CC1` (stereo unspecified) the pIC50 (A549 [2]) was 5.93, the pIC50 (SW-620) was 4.50 and the pIC50 (HCT-116 [3]) was less than 4.30. The pIC50 (PC-3 [4]) was less than 4.30.

In the case of `CCOC(=O)C1=C2N=C(N)c3ccccc3N2C2=C(C(=O)CC(C)(C)C2)C12C(=O)Nc1ccccc12` (stereo unspecified), the Activity (MCF7 [5]) was 76%, the Activity (HepG2 [6]) was 29% and the Activity [7] was 30%.

`O=C1N(Cc2ccccc2)c2ccccc2[C@@]12[C@H](O)c1ccccc1[C@@H]2[C@]1(CN2CCCCC2)C(=O)N(Cc2ccccc2)c2ccccc21` showed a pIC50 (K562) of 5.01.

In the case of `CC1(C)CC(=O)C2=C(C1)N(c1ccc(Cl)cc1)C(N)=C(C#N)C21C(=O)Nc2ccccc21` (stereo unspecified), the Activity (MCF7 [5]) was 79%, the Activity (HepG2 [6]) was 38% and the Activity [7] was 30%.

Work on `CCN(CC)C[C@@]1([C@H]2c3ccccc3[C@@H](O)[C@]23C(=O)N(C)c2c(C)cccc23)C(=O)N(C)c2c(C)cccc21` yielded a pIC50 (K562) of 4.57.

In the case of `N#CC1=C(N)NC2=C(CCCC2)C12C(=O)Nc1ccc(I)cc12` (stereo unspecified), the pIC50 (MCF7 [8]) was 4.55 and the pIC50 (HepG2 [9]) was 4.59.

`O=C1Oc2cc(Cl)ccc2C2C1CN(C(=O)N1CCCCC1)C21C(=O)Nc2ccccc21` (stereo unspecified) showed a pIC50 (A549 [2]) of 5.15, a pIC50 (SW-620) of 6.31 and a pIC50 (HCT-116 [3]) of 4.80. For the same compound, the pIC50 (PC-3 [4]) was less than 4.30.

For `N#CC1=C(N)OC2=C(C(=O)c3ccccc32)C12C(=O)Nc1ccc(F)cc12` (stereo unspecified), the GI50 (MDA-MB-435) was greater than 100 µM and the GI50 (MCF7 [1]) was 90.9 µM.

In the case of `CCCN(CCC)C(=O)CSc1nc2c(c(=O)n1CC)C1(CCCCC1)Cc1ccccc1-2`, the “inhibition (INH)” value [10] was 86%.

In the case of `COC1=CC2(C=C(C(=O)NNc3ccc(OC(F)(F)F)cc3)c3cc(OC)cc(OC)c32)C(OC)=CC1=O` (stereo unspecified), the pIC50 (MCF7 [11]) was 4.82, the pIC50 (B16-F10) was 4.71 and the pIC50 (A549 [12]) was 4.75.

`O=C(C1CN(C(=O)N2CCCCC2)C2(C(=O)Nc3ccccc32)C1c1ccc(Cl)cc1O)N1CCOCC1` (stereo unspecified) showed a pIC50 (A549 [2]) of 4.43, a pIC50 (SW-620) greater than 7.10 and a pIC50 (HCT-116 [3]) of less than 4.30. The pIC50 (PC-3 [4]) was less than 4.30.

`N#CC1=C(N)OC2=C(C(=O)c3ccccc32)C12C(=O)Nc1ccc(Cl)cc12` (stereo unspecified) showed a GI50 (MDA-MB-435) of 2.1 µM and a GI50 (MCF7 [1]) greater than 100 µM.

Work on `Cc1coc2c1C(=O)C(=O)c1c-2ccc2c1CCCC2(C)C` [TANSHINONE IIA] yielded a pIC50 (L02) of 4.19.

With `N#CC1=C(N)NC2=C(CCCCCC2)C12C(=O)Nc1ccccc12` (stereo unspecified) the pIC50 (MCF7 [8]) was 4.49 and the pIC50 (HepG2 [9]) was 4.41.

Work on `Cc1ccc(-c2nc(SC3O[C@H](CO)[C@@H](O)[C@H](O)[C@H]3O)nc3c2SC2(CCCCC2)N3c2ccc(F)cc2)o1` (stereo partly specified) yielded a pIC50 (HepG2 [13]) of 6.55, a pIC50 (PC-3 [14]) of 6.55 and a pIC50 (HCT-116 [15]) of 7.02.

`CCN(CC)C[C@@]1([C@H]2c3ccccc3[C@@H](O)[C@]23C(=O)N(C)c2ccc(C)cc23)C(=O)N(C)c2ccc(C)cc21` showed a pIC50 (K562) of 4.56.

Work on `COC1=CC2(C=C(C(=O)Oc3c(F)cc(F)cc3F)c3cc(OC)cc(OC)c32)C(OC)=CC1=O` (stereo unspecified) yielded a pIC50 (MCF7 [11]) of 4.91, a pIC50 (B16-F10) of 5.02 and a pIC50 (A549 [12]) of 4.98.

For `CCOC(=O)C1=C(N)N(c2ccccc2)C2=C(C(=O)CC(C)(C)C2)C12C(=O)Nc1ccccc12` (stereo unspecified), the Activity (MCF7 [5]) was 78%, the Activity (HepG2 [6]) was 37% and the Activity [7] was 24%.

`O=C1OCC2Nc3ccccc3NC3(C(=O)N(Cc4ccccc4)c4ccc(Cl)cc43)C12` (stereo unspecified) showed a pIC50 (HeLa) of 4.80, a pIC50 (A549 [16]) of 5.41 and a pIC50 (DU-145) of 5.66. The pIC50 (MCF7 [17]) was 5.03.

`N#CC1=C(N)NC2=C(CCCCC2)C12C(=O)Nc1ccccc12` (stereo unspecified) showed a pIC50 (MCF7 [8]) of 4.74 and a pIC50 (HepG2 [9]) of 4.70.

Compound `CCC(=O)N1CC2C(=O)Oc3ccccc3C2C12C(=O)Nc1ccccc12` (stereo unspecified) has a pIC50 (A549 [2]) of 4.96, a pIC50 (SW-620) of 5.37 and a pIC50 (HCT-116 [3]) of 4.99. For the same compound, the pIC50 (PC-3 [4]) was 4.33.

With `CN1C(=O)[C@@]2(c3cccc(Cl)c31)[C@H](O)c1ccccc1[C@@H]2[C@]1(CN2CCSCC2)C(=O)N(C)c2c(Cl)cccc21` the pIC50 (K562) was 4.66.
